Test results as given in patent publication US9521846B2, “Template-fixed peptidomimetics with antimicrobial activity” (priority 2006, dated 2016).
Converted amounts (≈) assume the structure as drawn. Non-standard residues stand in square brackets, D forms with d. Residues, ends and D or L forms follow the SMILES beside them. hSer = N[C@@H](CCO)C(=O)O; Dab = NCC[C@H](N)C(=O)O; Abu = CC[C@H](N)C(=O)O

Key:
P. aeruginosa ATCC 27853 = type: cell-based, Pseudomonas aeruginosa; settings: ATCC 27853
Outline: (§1)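 Modified NCCLS broth microdilution; MH broth + 0.02% BSA; inoculum ~10^6 CFU/ml (0.5 McFarland); 1:1 with 2-fold serial peptide dilutions.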

[1] = test system: Pseudomonas aeruginosa IMP 1 Livermore 3140; type: cell-based; settings: IMP 1 Livermore 3140
Outline: as §1

[2] = test system: Pseudomonas aeruginosa P1021903; type: cell-based; settings: P1021903
Outline: as §1

[3] = test system: Pseudomonas aeruginosa P1021913; type: cell-based; settings: P1021913
Outline: as §1

[4] = test system: Pseudomonas aeruginosa P8191900; type: cell-based; settings: P8191900
Outline: as §1

HELA cells (Acc57) = test: Cytotoxicity assay, MTT reduction (LC 50, GI 50); type: cell-based
Outline: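 Read-out was MTT reduction (A595) after 48 h peptide exposure (12.5–50 μM, triplicates) of HeLa cells plated at 7.0×10^3/well and precultured 24 h. Growth % was normalised to a time-zero reading. Linear trend interpolation gave the concentration at −50% growth (LC50) and at 50% growth (GI50).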

[5] = test system: human red blood cells (hRBC); test: Hemolysis; type: cell-based; settings: 100
[6] = Plasma stability, human plasma; type: in vitro ADME
[7] = Plasma stability, rat plasma; type: in vitro ADME

| SMILES | MIC P. aeruginosa ATCC 27853 (P. aeruginosa ATCC 27853) | MIC P. aeruginosa IMP1 Livermore 3140 [1] | MIC P. aeruginosa P1021903 [2] | MIC P. aeruginosa P1021913 [3] | MIC P. aeruginosa P8191900 [4] | Cytotoxicity GI50 Hela cells (HELA cells (Acc57)) | Hemolysis at 100 μg/ml [5] | Stability human Plasma t1/2 [6] | Stability rat Plasma t1/2 [7] | Average MIC (P. aeruginosa) |
| --- | --- | --- | --- | --- | --- | --- | --- | --- | --- | --- |
| CC[C@H](C)[C@@H]1NC(=O)[C@H](Cc2c[nH]c3ccccc23)NC(=O)[C@H]([C@@H](C)O)NC(=O)[C@@H]2CCCN2C(=O)[C@H]2CCCN2C(=O)[C@H](CCN)NC(=O)[C@H](CCO)NC(=O)[C@H](CCN)NC(=O)[C@H](CCN)NC(=O)[C@H](Cc2c[nH]c3ccccc23)NC(=O)[C@H](CCN)NC(=O)[C@H](CCN)NC(=O)[C@H](CCCCN)NC(=O)[C@H](CCN)NC1=O [Example 35] (cyclo(TWI[Dab]K[Dab][Dab]W[Dab][Dab][hSer][Dab][dP]P)) | 0.05 µg/mL (≈ 0.031 µM) | 0.31 µg/mL (≈ 0.192 µM) | 0.10 µg/mL (≈ 0.0621 µM) | 0.24 µg/mL (≈ 0.149 µM) | 0.22 µg/mL (≈ 0.137 µM) | 48 µM | 0.2% | 5 h | 5 h | 0.18 µg/mL |
| CC[C@@H]1NC(=O)[C@H](CCN)NC(=O)[C@H](CCN)NC(=O)[C@H](Cc2c[nH]c3ccccc23)NC(=O)[C@H](CCN)NC(=O)[C@H](CCN)NC(=O)[C@H](CCCCN)NC(=O)[C@H](CCN)NC(=O)[C@H]([C@@H](C)CC)NC(=O)[C@H](Cc2c[nH]c3ccccc23)NC(=O)[C@H]([C@@H](C)O)NC(=O)[C@@H]2CCCN2C(=O)[C@H]2CCCN2C(=O)[C@H](CCN)NC1=O [Example 6] (cyclo(TWI[Dab]K[Dab][Dab]W[Dab][Dab][Abu][Dab][dP]P)) | 0.05 µg/mL (≈ 0.0313 µM) | 0.24 µg/mL (≈ 0.15 µM) | 0.09 µg/mL (≈ 0.0564 µM) | 0.16 µg/mL (≈ 0.1 µM) | 0.10 µg/mL (≈ 0.0627 µM) | 50 µM | 0.2% | 5 h | 5 h | 0.13 µg/mL |
| CC[C@H](C)[C@@H]1NC(=O)[C@H](Cc2c[nH]c3ccccc23)NC(=O)[C@H]([C@@H](C)O)NC(=O)[C@@H]2CCCN2C(=O)[C@H]2CCCN2C(=O)[C@H](CCN)NC(=O)[C@H]([C@@H](C)O)NC(=O)[C@H](CCN)NC(=O)[C@H](CCN)NC(=O)[C@H](Cc2c[nH]c3ccccc23)NC(=O)[C@H](CCN)NC(=O)[C@H](CCN)NC(=O)[C@H](CCCCN)NC(=O)[C@H](CCN)NC1=O [Example 16] (cyclo(TWI[Dab]K[Dab][Dab]W[Dab][Dab]T[Dab][dP]P)) | 0.05 µg/mL (≈ 0.031 µM) | 0.24 µg/mL (≈ 0.149 µM) | 0.05 µg/mL (≈ 0.031 µM) | 0.10 µg/mL (≈ 0.0621 µM) | 0.09 µg/mL (≈ 0.0559 µM) | 50 µM | 0.1% | 5 h | 5 h | 0.11 µg/mL |
| CC[C@H](C)[C@@H]1NC(=O)[C@H](Cc2c[nH]c3ccccc23)NC(=O)[C@H]([C@@H](C)O)NC(=O)[C@@H]2CCCN2C(=O)[C@H]2CCCN2C(=O)[C@H](CCN)NC(=O)[C@H](C)NC(=O)[C@H](CCN)NC(=O)[C@H](CCN)NC(=O)[C@H](Cc2c[nH]c3ccccc23)NC(=O)[C@H](CCN)NC(=O)[C@H](CCCCN)NC(=O)[C@H](CCCCN)NC(=O)[C@H](CCN)NC1=O [Example 25] (cyclo(TWI[Dab]KK[Dab]W[Dab][Dab]A[Dab][dP]P)) | 0.05 µg/mL (≈ 0.0311 µM) | 0.24 µg/mL (≈ 0.149 µM) | 0.05 µg/mL (≈ 0.0311 µM) | 0.13 µg/mL (≈ 0.0808 µM) | 0.10 µg/mL (≈ 0.0622 µM) | 50 µM | 0.1% | 5 h | 5 h | 0.11 µg/mL |
| CC[C@H](C)[C@@H]1NC(=O)[C@H](Cc2c[nH]c3ccccc23)NC(=O)[C@H]([C@@H](C)O)NC(=O)[C@@H]2CCCN2C(=O)[C@H]2CCCN2C(=O)[C@H](CCN)NC(=O)[C@H](C)NC(=O)[C@H](CCN)NC(=O)[C@H](CCN)NC(=O)[C@H](Cc2c[nH]c3ccccc23)NC(=O)[C@H](CCN)NC(=O)[C@H](CCN)NC(=O)[C@H](CCCCN)NC(=O)[C@H](CCC(N)=O)NC1=O [Example 29] (cyclo(TWIQK[Dab][Dab]W[Dab][Dab]A[Dab][dP]P)) | 0.09 µg/mL (≈ 0.0559 µM) | 0.40 µg/mL (≈ 0.249 µM) | 0.13 µg/mL (≈ 0.0808 µM) | 0.21 µg/mL (≈ 0.131 µM) | 0.13 µg/mL (≈ 0.0808 µM) | 50 µM | 0.5% | 5 h | 5 h | 0.19 µg/mL |
